We go through 24 molecules from patent US9758492B2, “IDO inhibitors” (Bristol-Myers Squibb Company, priority 2013, dated 2017).

The target in this experiment is IDO (Homo sapiens, UniProt P14902). As to the kind of experiment: LLE_IDO_ABS_DR (IDO assay).
IDO, sequence (P14902 whole entry): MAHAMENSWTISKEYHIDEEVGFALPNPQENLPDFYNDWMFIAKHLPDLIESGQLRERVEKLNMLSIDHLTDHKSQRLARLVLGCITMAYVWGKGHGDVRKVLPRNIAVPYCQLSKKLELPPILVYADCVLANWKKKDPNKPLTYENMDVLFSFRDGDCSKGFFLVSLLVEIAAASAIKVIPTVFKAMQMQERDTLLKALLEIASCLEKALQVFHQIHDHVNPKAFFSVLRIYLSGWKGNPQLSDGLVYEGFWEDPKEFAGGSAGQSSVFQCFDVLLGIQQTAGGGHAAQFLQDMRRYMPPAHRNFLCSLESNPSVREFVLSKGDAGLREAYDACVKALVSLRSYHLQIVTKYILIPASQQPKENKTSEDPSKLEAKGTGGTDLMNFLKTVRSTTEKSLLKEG
What is called IC50 is the concentration that gives 50% inhibition. Regarding `Cc1ccc(NC(=O)Nc2cc(-c3ccccc3-c3nnn[nH]3)ccc2N(C)CC(C)C)cc1` [Example 179, 1-(4-(isobutyl(methyl)amino)-2′-(1H-tetrazol-5-yl)-[1,1′-biphenyl]-3-yl)-3-(p-tolyl)urea], the IC50 turned out to be 0.05 µM. In turn, `Cc1ccc(NC(=O)Nc2cc(-c3ccccc3C(=O)O)ccc2N(C)CC(C)C)cc1` [Example 180, 4′-(isobutyl(methyl)amino)-3′-(3-(p-tolyl)ureido)-[1,1′-biphenyl]-2-carboxylic acid] had an IC50 of 0.23 µM. The result for `Cc1ccc(NC(=O)Nc2cc(-c3cc(F)ccc3C(=O)O)ccc2N(C)CC(C)C)cc1` [Example 181, 5-fluoro-4′-(isobutyl(methyl)amino)-3′-(3-(p-tolyl)ureido)-[1,1′-biphenyl]-2-carboxylic acid] reads 0.27 µM. In turn, `Cc1ccc(NC(=O)Nc2cc(-c3cc(F)ccc3C(=O)O)ccc2N(CC(C)C)C2CCC2)cc1` [Example 182, 4′-(cyclobutyl(isobutyl)amino)-5-fluoro-3′-(3-(p-tolyl)ureido)-[1,1′-biphenyl]-2-carboxylic acid] displayed an IC50 of 0.05 µM.

Regarding `Cc1ccc(NC(=O)Nc2cc(-c3ccccc3C(=O)O)ccc2N(CC(C)C)C2CCC2)cc1` [Example 183, 4′-(cyclobutyl(isobutyl)amino)-3′-(3-(p-tolyl)ureido)-[1,1′-biphenyl]-2-carboxylic acid], the IC50 turned out to be 0.02 µM. `Cc1ccc(NC(=O)Nc2cc(-c3ccccc3-c3nnn[nH]3)ccc2N(CC(C)C)C2CCC2)cc1` [Example 184, 1-(4-(cyclobutyl(isobutyl)amino)-2′-(1H-tetrazol-5-yl)-[1,1′-biphenyl]-3-yl)-3-(p-tolyl)urea] returned an IC50 of 0.01 µM. `CCCN(Cc1ccccc1)c1ccc(-c2ccccc2-c2nnn[nH]2)cc1NC(=O)Nc1ccc(C)cc1` [Example 185, 1-(4-(benzyl(propyl)amino)-2′-(1H-tetrazol-5-yl)-[1,1′-biphenyl]-3-yl)-3-(p-tolyl)urea] gave an IC50 of 0.00263 µM. The result for `CCCN(Cc1ccccc1)c1ccc(-c2cc(F)ccc2C(=O)O)cc1NC(=O)Nc1ccc(C)cc1` [Example 186, 4′-(benzyl(propyl)amino)-5-fluoro-3′-(3-(p-tolyl)ureido)-[1,1′-biphenyl]-2-carboxylic acid] reads 0.03 µM; that for `CCCN(Cc1ccccc1)c1ccc(-c2ccccc2C(=O)O)cc1NC(=O)Nc1ccc(C)cc1` [Example 187, 4′-(benzyl(propyl)amino)-3′-(3-(p-tolyl)ureido)-[1,1′-biphenyl]-2-carboxylic acid], 0.02 µM; that for `Cc1ccc(NC(=O)Nc2cc(-c3ccccc3C(=O)O)ccc2N(CCC(C)C(F)(F)F)C2CCCCC2)cc1` (stereo not drawn) [Example 188, 4′-(cyclohexyl(4,4,4-trifluoro-3-methylbutyl)amino)-3′-(3-(p-tolyl)ureido)-[1,1′-biphenyl]-2-carboxylic acid], 0.29 µM. Turning to `Cc1ccc(NC(=O)Nc2cc(-c3cc(F)ccc3C(=O)O)ccc2N(CCC(C)C(F)(F)F)C2CCCCC2)cc1` (stereo not drawn) [Example 189, 4′-(cyclohexyl(4,4,4-trifluoro-3-methylbutyl)amino)-5-fluoro-3′-(3-(p-tolyl)ureido)-[1,1′-biphenyl]-2-carboxylic acid], the IC50 is 0.48 µM.

On to `Cc1ccc(NC(=O)Nc2cc(-c3ccccc3-c3nnn[nH]3)ccc2N(CCC(C)C(F)(F)F)C2CCCCC2)cc1` (stereo not drawn) [Example 190, 1-(4-(cyclohexyl(4,4,4-trifluoro-3-methylbutyl)amino)-2′-(1H-tetrazol-5-yl)-[1,1′-biphenyl]-3-yl)-3-(p-tolyl)urea], for which it took 0.08 µM to reach half-maximal inhibition (IC50).

The molecule `COCCN(Cc1ccc(Cl)cc1)c1ccc(-c2ccccc2-c2nnn[nH]2)cc1NC(=O)Nc1ccc(C)cc1` [Example 191, 1-(4-((4-chlorobenzyl)(2-methoxyethyl)amino)-2′-(1H-tetrazol-5-yl)-[1,1′-biphenyl]-3-yl)-3-(p-tolyl)urea] had an IC50 of 0.00579 µM.

As for `COCCN(Cc1ccc(Cl)cc1)c1ccc(-c2ccccc2C(=O)O)cc1NC(=O)Nc1ccc(C)cc1` [Example 192, 4′-((4-chlorobenzyl)(2-methoxyethyl)amino)-3′-(3-(p-tolyl)ureido)-[1,1′-biphenyl]-2-carboxylic acid], half-maximal inhibition (IC50) was put at 0.00782 µM. The figure for `Cc1ccc(NC(=O)Nc2cc(-c3ccccc3-c3nnn[nH]3)ccc2N(CC(F)F)C2CCCCC2)cc1` [Example 194, 1-(4-(cyclohexyl(2,2-difluoroethyl)amino)-2′-(1H-tetrazol-5-yl)-[1,1′-biphenyl]-3-yl)-3-(p-tolyl)urea] is 0.00474 µM; for `Cc1ccc(NC(=O)Nc2cc(-c3ccccc3-c3nnn[nH]3)ccc2N(CCC(F)(F)F)C2CCCCC2)cc1` [Example 195, 1-(4-(cyclohexyl(3,3,3-trifluoropropyl)amino)-2′-(1H-tetrazol-5-yl)-[1,1′-biphenyl]-3-yl)-3-(p-tolyl)urea] it is 0.00479 µM; for `Cc1ccc(NC(=O)Nc2cc(-c3ccccc3C(=O)O)ccc2N(CC(F)F)C2CCCCC2)cc1` [Example 196, 4′-(cyclohexyl(2,2-difluoroethyl)amino)-3′-(3-(p-tolyl)ureido)-[1,1′-biphenyl]-2-carboxylic acid] it is 0.02 µM. Molecule `Cc1ccc(NC(=O)Nc2cc(-c3ccccc3C(=O)O)ccc2N(CCC(F)(F)F)C2CCCCC2)cc1` [Example 197, 4′-(cyclohexyl(3,3,3-trifluoropropyl)amino)-3′-(3-(p-tolyl)ureido)-[1,1′-biphenyl]-2-carboxylic acid] registered an IC50 of 0.01 µM. The result for `Cc1ccc(NC(=O)Nc2cc(-c3ccccc3C(=O)O)ccc2N(CCC(F)(F)F)CC(C)C)cc1` [Example 198, 4′-(isobutyl(3,3,3-trifluoropropyl)amino)-3′-(3-(p-tolyl)ureido)-[1,1′-biphenyl]-2-carboxylic acid] reads 0.21 µM; that for `Cc1ccc(NC(=O)Nc2cc(-c3ccccc3-c3nnn[nH]3)ccc2N(CCC(F)(F)F)CC(C)C)cc1` [Example 199, 1-(4-(isobutyl(3,3,3-trifluoropropyl)amino)-2′-(1H-tetrazol-5-yl)-[1,1′-biphenyl]-3-yl)-3-(p-tolyl)urea], 0.06 µM. The molecule `Cc1ccc(NC(=O)Nc2cc(-c3cc(F)ccc3C(=O)O)ccc2N(CCC(F)(F)F)CC(C)C)cc1` [Example 200, 5-fluoro-4′-(isobutyl (3,3,3-trifluoropropyl)amino)-3′-(3-(p-tolyl)ureido)-[1,1′-biphenyl]-2-carboxylic acid] showed a half-maximal inhibitory concentration (IC50) of 0.11 µM.

As to `CC(C)CN(CCC(C)C(F)(F)F)c1ccc(-c2ccccc2-c2nnn[nH]2)cc1NC(=O)Nc1ccccc1F` (stereo not drawn) [Example 201, 1-(2-fluorophenyl)-3-(4-(isobutyl(4,4,4-trifluoro-3-methylbutyl)amino)-2′-(1H-tetrazol-5-yl)-[1,1′-biphenyl]-3-yl)urea], the IC50 is 0.00446 µM. Consider `Cc1ccc(NC(=O)Nc2cc(-c3ccccc3-c3nnn[nH]3)ccc2N(CCC(C)C(F)(F)F)CC(C)C)cc1` (stereo not drawn) [Example 202, 1-(4-(isobutyl(4,4,4-trifluoro-3-methylbutyl)amino)-2′-(1H-tetrazol-5-yl)-[1,1′-biphenyl]-3-yl)-3-(p-tolyl)urea], for which the 50% inhibitory concentration (IC50) is 0.01 µM.

`Cc1ccc(NC(=O)Nc2cc(-c3cc(F)ccc3C(=O)O)ccc2N(CCC(C)C(F)(F)F)CC(C)C)cc1` (stereo not drawn) [Example 203, 5-fluoro-4′-(isobutyl (4,4,4-trifluoro-3-methylbutyl)amino)-3′-(3-(p-tolyl)ureido)-[1,1′-biphenyl]-2-carboxylic acid] yielded an IC50 of 0.00731 µM.
